Measured values: patent publication US20250282715A1, “SOLID STATE FORMS OF MIRDAMETINIB AND PROCESS FOR PREPARATION THEREOF” (Assia Chemical Industries Ltd., priority 2022, published 2025)

Assays:
Type in all cases: physicochemical
[1] = Hygroscopicity (water absorption at up to 90% RH); details: about 25° C.
[2] = Stability to compression (2 tons, XRPD analysis); details: pressure of 2 tons for 2 minutes, hydraulic press
Experimental: (§1) A sample, after being powdered in a mortar and pestle, is applied directly on a silicon plate holder. The X-ray powder diffraction pattern was measured with Philips X'Pert PRO X-ray powder diffractometer, equipped with Cu irradiation source=1.54184 Å (Ångström), X'Celerator (2.022° 20) detector. Scanning parameters: angle range: 3-40 deg., step size 0.0167, time per step 37 s, continuous scan.
A sample of Mirdametinib oxalic acid co-crystal Form A was subjected to a pressure of 2 tons for 2 minutes (Atlas® Autopress hydraulic press, set to 2 tons).

[3] = Thermal stability (oven heating, XRPD analysis); details: heated in an oven at 100° C. for 30 minutes
Experimental: as §1
Samples of Mirdametinib oxalic acid co-crystal Form A (100 mg) and Form IV were heated in an oven at 100° C. for 30 minutes.

Row | Hygroscopicity / water absorption [1] | Stability to compression: XRPD analysis after mechanical stress [2] | XRPD after heating [3] | XRPD after heating ([3]; listed as Mirdametinib oxalic acid co-crystal Form A) | Structure (SMILES)
1 | little or no water absorption | resistant to amorphization | Form A | no conversion to other polymorph forms | O=C(NOC[C@H](O)CO)c1ccc(F)c(F)c1Nc1ccc(I)cc1F.O=C(O)C(=O)O
2 |  |  | form IV + form I |  | O=C(NOC[C@H](O)CO)c1ccc(F)c(F)c1Nc1ccc(I)cc1F [Mirdametinib form IV, N-[(2R)-2,3-dihydroxypropoxyl]-3,4-difluoro-2-[(2-fluoro-4-iodophenyl)amino]benzamide, reference compound]
